We go through 13 compounds from US9920058B2, “Molecules with potent DHFR binding affinity and antibacterial activity” (Georgia Tech Research Corporation, priority 2013, dated 2018).

What is called ΔTm is the shift of the melting midpoint relative to a reference.

Converted amounts (≈) assume the structure as drawn. Read-outs that look alike come from different tables or passages of the source.

For experiment [1], the system named is amphotericin-resistant Candida albicans (ARCA). The experiment in a line: Antifungal growth inhibition (MIC), ARCA. Format: cell-based. Particulars: for MIC: read-out: ARCA (MIC).
For experiment [2], the system named is colon carcinoma cells HCT-116. The experiment in a line: Cytotoxicity assay on HCT-116. Format: cell-based. Particulars: for IC50: Homo sapiens, HCT-116.
In experiment [3] the test system is vancomycin-resistant E. faecium (ATCC700221) (VREF). The experiment in a line: Antimicrobial growth inhibition (MIC), VREF.
The target in experiment [4] is dihydrofolate reductase (DHFR) from Escherichia coli (Escherichia coli, UniProt P0ABQ4). The experiment in a line: biochemical. It counts as binding. Particulars: for ΔTm: unit given in Table 4. How it is done:
The thermal shift assay was performed in a control reaction mix containing 100 mM HEPES pH 7.3, 150 mM NaCl, 5× Sypro-orange (an extrinsic fluorophore reporter from Invitrogen), 10 micromolar of the protein dihydrofolate reductase in 20 μl reaction mix. The test reaction contained 1 mM of the said compound apart from all the other constituents as mentioned above. Protein melting curves were obtained from samples aliquoted in 96-well plates using a RealPlex quantitative PCR from Eppendorf. […] A heating ramp of 1 degree Celsius/min was used from 25 degree Celsius to 74 degree Celsius and one data point was acquired for each degree increment. Appropriate dye controls and protein controls were incorporated. All the experiments were done with minimum two replicates and the mean value of the replicate Y was considered for further analysis.
Protein melting curves were obtained from samples aliquoted in 96-well plates using a RealPlex quantitative PCR instrument from Eppendorf (Eppendorf, N.Y., USA), with Sypro orange dye from Invitrogen as the fluorescent probe. A uniform final concentration of 5× (supplied as a 5000× stock solution) was used in all experiments. […] A heating ramp of 1° C./min from 25° C. to 74° C. was used, and one data point acquired for each degree increment. For standardization, different buffers and pH were checked. Thereafter, 100 mM HEPES pH 7.3 and 150 mM NaCl were used in all unfolding experiments. The volume of each reaction was 20 μl, and appropriate dye and protein controls were included. All experiments were done with a minimum of two replicates, with the mean value considered for further analysis. […] An additional control to rule out drug-dye interaction was carried out with all the constituents kept constant except for the protein of interest. The protein/protein-drug curves were reported after subtracting the respective dye alone/drug-dye curves.
Each melting curve was assigned a quality score (Q), the ratio of the melting-associated increase in fluorescence (ΔFmelt) to the total fluorescence range (ΔFtotal). […] Though an arbitrary Q value cutoff was not applied to judge curve quality, the curves were manually curated with Q values reported.
Subsequent to standardization, the validity of the top 1% of […]^comb's predictions on the test set of eight diverse proteins was examined. To be conservative, we focused only on those protein/ligand pairs showing single sigmoidal thermal transition curves. The fit to Boltzmann's equation (Eq. 1) was employed to estimate the melting temperature from the observed intensity, I.
[formula] Imin and Imax are the minimum and maximum intensities; a denotes the slope of the curve at the transition midpoint temperate, Tm. To estimate thermodynamic parameters, both van't Hoff and Gibbs-Helmholtz analyses were done.
[formula] KL(Tm) is the ligand association constant and [L] is the free ligand concentration at Tm([LTm]˜[L]total, when [L]total>>the total concentration of protein. KD is the inverse of KL(Tm).

For experiment [5], the system named is several cancer cell lines including melanoma, prostrate, colon, and breast. Particulars: cited from earlier work.
Experiment [6] concerns methicillin-resistant S. aureus (ATCC 33591) (MRSA). The experiment in a line: Antimicrobial growth inhibition (MIC), MRSA.
The test system of experiment [7] is multi-drug resistant E. coli SMS-3-4 (ATCC BAA-1743) (MDREC). The experiment in a line: Antimicrobial growth inhibition (MIC), MDREC. Particulars: Escherichia coli.
The next experiment relates to E. coli DH5α. The experiment in a line: Antimicrobial growth inhibition (MIC), E. coli DH5α. Particulars: Escherichia coli.
The mark [8] stands for this setting: Table 6, ND: No significant inhibition, read-out: HCT-116 (IC-50), inhibitory concentration for 50% growth inhibition.
Setting [9] is: Enterococcus faecium, ATCC700221, read-out: VREF (MIC), minimum inhibitory concentration required for 90% clearance.
Setting [10] is: Table 5, computed from the thermal shifts obtained, read-out: KD (Approx).
Setting [11] is: Candida albicans, Table 5, unit from Table 1, ND: non determinable/no significant inhibition.
[12] abbreviates: Table 5, unit from Table 6, ND: non determinable/no significant inhibition.
Where [13] appears, read: Table 6, ND: No significant inhibition.

Regarding `CN(Cc1cnc2nc(N)nc(N)c2n1)c1ccc(C(=O)N[C@@H](CCC(=O)O)C(=O)O)cc1` [NSC740, methotrexate], the MIC in experiment [1] (Candida albicans) and in experiment [3] (setting [9]) was 500 µg/mL (≈ 1100 µM) each time. The IC50 in experiment [2] (setting [8]) worked out at 0.048 µg/mL (≈ 0.106 µM).

Take `CCOc1ccc(NC(=O)c2cc3ccccc3cc2O)cc1` [NSC50690]: the Kd in experiment [4] (setting [10]) worked out at 463 µM. Moreover, the ΔTm in experiment [4] (Table 5) was 0.23 °C.

On to `Nc1ccc(NC(=O)c2ccc(C(=O)Nc3ccc(N)cc3)cc2)cc1` [NSC55152], for which the Kd in experiment [4] (setting [10]) was 73.8 µM. The thermal shift (ΔTm) in experiment [4] (Table 5) was found to be 5.89 °C.

`Nc1ccc(-c2nc3nc(N)nc(N)c3nc2-c2ccc(N)cc2)cc1` [NSC61642, 6,7-bis(4-aminophenyl) pteridine-2,4-diamine, reference compound]: the Kd in experiment [4] (setting [10]) came to 2.03 µM. For the same compound, the MIC in experiment [1] (setting [11]) was 250 µg/mL (≈ 726 µM).

Consider `O=C(Nc1ccc(Oc2ccc(NC(=O)Nc3ccc([N+](=O)[O-])cc3)cc2)cc1)Nc1ccc([N+](=O)[O-])cc1` [NSC80735], for which the Kd in experiment [4] (setting [10]) was 1.71 µM; in experiment [4] (text b322, read-out: KD / affinity), 1.7 µM. For the same compound, the ΔTm in experiment [4] (Table 5) was 18.16 °C. Moreover, in experiment [2] (setting [12]), the “HCT-116 (IC-50)” value was found to be 10.9 µg/mL.

Consider `C1=Cc2ccccc2Nc2ccccc21` [NSC123458], for which the Kd in experiment [4] (setting [10]) is 5.64 µM. For the same compound, the ΔTm in experiment [4] (Table 5) amounted to 14.17 °C.

For `COc1cc(NCc2ccccc2O)c2ncccc2c1` [NSC130801], the Kd in experiment [4] (setting [10]) is 75 µM. The ΔTm in experiment [4] (Table 5) was 5.84 °C.

Take `CC(C)=C(c1ccc(Cl)cc1)c1c(N)ncnc1N` [NSC157522]: in experiment [4] (setting [10]), the Kd was found to be 19.5 µM. Further, the ΔTm in experiment [4] (Table 5) was determined as 10.13 °C.

Consider `O=C(Nc1ccc(C(=O)O)c(O)c1)c1ccccc1` [NSC159686], for which the Kd in experiment [4] (setting [10]) turned out to be 12.7 µM. Further, in experiment [4] (Table 5), the thermal shift (ΔTm) amounted to 11.52 °C.

With `Nc1ccc(Cn2ccc3c4c(N)nc(N)nc4ccc32)cc1` [NSC309401, 7-[(4-aminophenyl)methyl]-7H-pyrrolo[3,2-f]quinazoline-1,3-diamine], the MIC90 in experiment [1] (Candida albicans, read-out: MIC (MIC-90, minimum inhibitory concentration for 90% growth inhibition), Table 1, ARCA) was 125 µg/mL (≈ 411 µM); in experiment [6] (Staphylococcus aureus, ATCC33591|MRSA, read-out: MIC (MIC-90, minimum inhibitory concentration for 90% growth inhibition)), 31.2 µg/mL (≈ 103 µM); in experiment [3] (Enterococcus faecium, ATCC700221, read-out: MIC (MIC-90, minimum inhibitory concentration for 90% growth inhibition)), 31.2 µg/mL (≈ 103 µM); in experiment [7] (ATCCBAA1743, read-out: MIC (MIC-90, minimum inhibitory concentration for 90% growth inhibition)), 125 µg/mL (≈ 411 µM); in the experiment on E. coli DH5α (read-out: MIC (MIC-90, minimum inhibitory concentration for 90% growth inhibition)), 7.81 µg/mL (≈ 25.7 µM). In addition, the MIC is 125 µg/mL (≈ 411 µM) in experiment [1] (setting [11]); 31.2 µg/mL (≈ 103 µM) in experiment [6] (Staphylococcus aureus, ATCC33591|MRSA, read-out: MRSA (MIC), minimum inhibitory concentration required for 90% clearance); 31.2 µg/mL (≈ 103 µM) in experiment [6] (Staphylococcus aureus, read-out: MRSA (MIC)); 31.2 µg/mL (≈ 103 µM) in experiment [3] (Enterococcus faecium, ATCC700221, read-out: VREF (MIC)); 31.2 µg/mL (≈ 103 µM) in experiment [3] (setting [9]); 125 µg/mL (≈ 411 µM) in experiment [7] (ATCCBAA1743, read-out: MDREC (MIC), minimum inhibitory concentration required for 90% clearance). Moreover, the MIC in the experiment with E. coli DH5α (read-out: DH5α (MIC)) was found to be 7.81 µg/mL (≈ 25.7 µM); in the experiment on E. coli DH5α (read-out: DH5α (MIC), minimum inhibitory concentration required for 90% clearance), 7.81 µg/mL (≈ 25.7 µM). Further, the IC50 in experiment [2] (Table 5, unit from Table 6, ND: non determinable/no significant inhibition, read-out: HCT-116 (IC-50)) turned out to be 0.13 µg/mL (≈ 0.427 µM); in experiment [2] (setting [8]), 0.13 µg/mL (≈ 0.427 µM). Besides, in experiment [5], the “activity against cancer cell lines (potency not revealed)” value is recorded as “has activity”.

In the case of `N/C(CC(=O)Nc1cc(C(F)(F)F)ccc1Cl)=N\O` [NSC379536], the Kd in experiment [4] (setting [10]) stood at 28.9 µM. In experiment [4] (Table 5), the shift in melting temperature (ΔTm) was 8.86 °C.

`CCc1nc(N)nc(N)c1-c1ccc(N(C)Cc2ccccc2)c([N+](=O)[O-])c1` [NSC382035, methylbezoprim, reference compound]: the “ARCA (MIC)” value in experiment [1] (Table 5, unit from Table 1, ND: non determinable/no significant inhibition) is 250 µg/mL. The “HCT-116 (IC-50)” value in experiment [2] (setting [12]) was 0.182 µg/mL. Also, in experiment [2] (setting [13]), the “HCT-116 (IC-50), inhibitory concentration for 50% growth inhibition” value worked out at 0.182 µg/mL. Moreover, the “MRSA (MIC)” value in experiment [6] (setting [12]) turned out to be 31.25 µg/mL. In experiment [6] (setting [13]), the “MRSA (MIC), minimum inhibitory concentration required for 90% clearance” value is 31.25 µg/mL. The “VREF (MIC)” value in experiment [3] (setting [12]) turned out to be 31.25 µg/mL. Further, in experiment [3] (setting [13]), the “VREF (MIC), minimum inhibitory concentration required for 90% clearance” value stood at 31.25 µg/mL.

With `C#CCC(Cc1cnc2nc(N)nc(N)c2n1)c1ccc(C(=O)N[C@@H](CCC(=O)O)C(=O)O)cc1` (stereo partly drawn) [NSC754230, pralatrexate, reference compound], the Kd in experiment [4] (setting [10]) was determined as 0.499 µM. For the same compound, in experiment [2] (setting [8]), the IC50 is less than 0.031 µg/mL.
